Experimental data from patent US20260355188A1, “COMBINATION THERAPIES USING PRMT5 INHIBITORS AND BCL-2 FAMILY INHIBITORS FOR THE TREATMENT OF CANCER” (MIRATI THERAPEUTICS, INC., priority 2022, published 2026).

How the values were obtained:
LU99 xenograft tumors = experiment: In vivo combination study (LU99 model), Example 4; parameters: species or system female nu/nu mice; details: MRTX1719 100 mg/kg PO QD, A-1331852 25 mg/kg PO BID, alone or combined
Description: Immunodeficient female nu/nu mice were implanted with 5×10^6 LU99 cancer cells in 50% Matrigel. Tumor volume measurements were collected using calipers and determined utilizing the formula 0.5×L×W^2 in which L refers to length and W refers to width of each tumor. When tumors reached approximately 125-150 mm^3, animals were randomized to receive A) vehicle, B) a PRMT5 inhibitor, C) navitoclax (ABT-263), D) venetoclax (ABT-199), E) A-1331852, F) the PRMT5 inhibitor and navitoclax, F) the PRMT5 inhibitor and venetoclax, or G) the PRMT5 inhibitor and A-1331852 all administered orally (PO) with the indicated dose and schedule for 20-34 days. Tumor volume was measured twice a week (n=5/treatment group). Average tumor volume and standard error of the mean was calculated and plotted at each study day using GraphPad Prism.
Example 4 was carried out according to the in vivo study procedure described above in Example 1.
The PRMT5 inhibitor was MRTX1719 administered at 100 mg/kg once a day (QD). MRTX1719 is (2M)-2-(4-(4-(aminomethyl)-1-oxo-1,2-dihydrophthalazin-6-yl)-1-methyl-1H-pyrazol-5-yl)-4-chloro-6-cyclopropoxy-3-fluorobenzonitrile, disclosed as Example 16-8 at p. 307 of the international patent publication No. WO 2021/050915 A1, published 18 Mar. 2021, incorporated by reference in its entirety. The BCL-2 family inhibitor, A-1331852 was administered at 25 mg/kg twice a day (BID) and synthesized at Wuxi AppTec (Wuhan, China).

A549 = experiment: In vitro combination synergy, A549 (Cell-Titer Glo); type: cell-based; details: combined with exemplary PRMT5 inhibitor, 120 h, sum of Loewe, Bliss, HSA and ZIP scores
Experimental: (§1) A panel of MTAP-deleted cancer cell lines was assembled to determine whether combining BCL-2 family inhibitors with exemplary PRMT5 inhibitors disclosed herein results in synergistic activity.
(§2) [Assays for determining the synergy score for the pairwise combinations for each cell line were performed in triplicate. 384 or 96-well plates plus additional wells of a separate 384 or 96-well control plate for determining baseline luminescence were seeded with cells of a particular MTAP-deleted cell line in a suitable growth medium for that cell line, e.g., RPMI 1640 medium supplemented with 10% FBS and any cell line specific reagents needed for growth. The plates were incubated overnight at 37 °C in a 5% CO2 atmosphere.
(§3) To each of the designated baseline wells, Cell-Titer Glo reagent (CTG; Promega Corporation) was added to each well and the plates were incubated for 20 min shaking at room temperature. Baseline luminescence was quantitated using a BMG ClarioStar multimode plate reader according to the manufacturer's instructions.
(§4) A series of 1000× drug dilutions in 100% DMSO was prepared that includes a 9-point single agent 3-fold dilution of the exemplary PRMT5 inhibitor (of the type described in WO2021/050915) with a top dose of 3000 nM (and a 6-point single agent 5-fold dilution of the BCL-2 family inhibitor with a top dose of 3000 nM as reference standards.
(§5) A 10× intermediate dosing plate was prepared in serum free medium that contains arrayed single agent dilutions of exemplary PRMT5 inhibitor (of the type described in WO2021/050915) and or the BCL-2 family inhibitor. In addition, a matrix of 54 dilution combinations of exemplary PRMT5 inhibitor (of the type described in WO2021/050915) and the BCL-2 family inhibitor was prepared as test samples.
(§6) To each corresponding well of the 384-well plates seeded with the appropriate cell line above, 10× single agent and the 54 combinations of the dose matrix was added and the plates were incubated for 120 hours at 37 °C in 5% CO2 atmosphere. Cell-Titer Glo reagent (CTG) was added to each test well, the plates were incubated for 20 min shaking at room temperature, and luminescence was quantitated using a BMG ClarioStar multimode plate reader according to the manufacturer's instructions. To normalize test samples, the determined baseline luminescence was subtracted from each test sample prior to analysis and mean values are calculated from replicate samples.
(§7) The output of the data from each mathematical model is the assignment of a relative synergy score. The data reported in Table 6 are the aggregate sum of the Loewe additivity, Bliss independence, Highest Single Agent and ZIP synergy scores (“Composite Synergy Score”).

H1437 = experiment: In vitro combination synergy, H1437 (Cell-Titer Glo); type: cell-based; details: combined with exemplary PRMT5 inhibitor, 120 h, sum of Loewe, Bliss, HSA and ZIP scores
Experimental: as §1, §2, §3, §4, §5, §6, §7

H1650 = experiment: In vitro combination synergy, H1650 (Cell-Titer Glo); type: cell-based; details: combined with exemplary PRMT5 inhibitor, 120 h, sum of Loewe, Bliss, HSA and ZIP scores
Experimental: as §1, §2, §3, §4, §5, §6, §7

HCC4006 = experiment: In vitro combination synergy, HCC4006 (Cell-Titer Glo); type: cell-based; details: combined with exemplary PRMT5 inhibitor, 120 h, sum of Loewe, Bliss, HSA and ZIP scores
Experimental: as §1, §2, §3, §4, §5, §6, §7

LU99 = experiment: In vitro combination synergy, LU99 (Cell-Titer Glo); type: cell-based; details: combined with exemplary PRMT5 inhibitor, 120 h, sum of Loewe, Bliss, HSA and ZIP scores
Experimental: as §1, §2, §3, §4, §5, §6, §7

H2052 = experiment: In vitro combination synergy, H2052 (Cell-Titer Glo); type: cell-based; details: combined with exemplary PRMT5 inhibitor, 120 h, sum of Loewe, Bliss, HSA and ZIP scores
Experimental: as §1, §2, §3, §4, §5, §6, §7

H2452 = experiment: In vitro combination synergy, H2452 (Cell-Titer Glo); type: cell-based; details: combined with exemplary PRMT5 inhibitor, 120 h, sum of Loewe, Bliss, HSA and ZIP scores
Experimental: as §1, §2, §3, §4, §5, §6, §7

Mero14 = experiment: In vitro combination synergy, Mero14 (Cell-Titer Glo); type: cell-based; details: combined with exemplary PRMT5 inhibitor, 120 h, sum of Loewe, Bliss, HSA and ZIP scores
Experimental: as §1, §2, §3, §4, §5, §6, §7

Mero83 = experiment: In vitro combination synergy, Mero83 (Cell-Titer Glo); type: cell-based; details: combined with exemplary PRMT5 inhibitor, 120 h, sum of Loewe, Bliss, HSA and ZIP scores
Experimental: as §1, §2, §3, §4, §5, §6, §7

Mero84 = experiment: In vitro combination synergy, Mero84 (Cell-Titer Glo); type: cell-based; details: combined with exemplary PRMT5 inhibitor, 120 h, sum of Loewe, Bliss, HSA and ZIP scores
Experimental: as §1, §2, §3, §4, §5, §6, §7

Miapaca2 = experiment: In vitro combination synergy, Miapaca2 (Cell-Titer Glo); type: cell-based; details: combined with exemplary PRMT5 inhibitor, 120 h, sum of Loewe, Bliss, HSA and ZIP scores
Experimental: as §1, §2, §3, §4, §5, §6, §7

SU8686 = experiment: In vitro combination synergy, SU8686 (Cell-Titer Glo); type: cell-based; details: combined with exemplary PRMT5 inhibitor, 120 h, sum of Loewe, Bliss, HSA and ZIP scores
Experimental: as §1, §2, §3, §4, §5, §6, §7

RT4 = experiment: In vitro combination synergy, RT4 (Cell-Titer Glo); type: cell-based; details: combined with exemplary PRMT5 inhibitor, 120 h, sum of Loewe, Bliss, HSA and ZIP scores
Experimental: as §1, §2, §3, §4, §5, §6, §7

Compound: Cc1c(-c2ccc(N3CCc4cccc(C(=O)Nc5nc6ccccc6s5)c4C3)nc2C(=O)O)cnn1CC12CC3CC(CC(C3)C1)C2 [A-1331852]
- Average Tumor Volume (LU99 xenograft tumors; day 2): 217 mm^3
- Average Tumor Volume (LU99 xenograft tumors; day 6): 393 mm^3
- Average Tumor Volume (LU99 xenograft tumors; day 9): 547 mm^3
- Average Tumor Volume (LU99 xenograft tumors; day 14): 960 mm^3
- Average Tumor Volume (LU99 xenograft tumors; day 16): 1228 mm^3
- Average Tumor Volume (LU99 xenograft tumors; day 20): 1331 mm^3
- Average Tumor Volume (LU99 xenograft tumors; day −1): 137 mm^3
- Composite Synergy Score (A549): 42
- Composite Synergy Score (H1437): 36
- Composite Synergy Score (H1650): 62
- Composite Synergy Score (HCC4006): 63
- Composite Synergy Score (LU99): 64
- Composite Synergy Score (H2052): 12
- Composite Synergy Score (H2452): 42
- Composite Synergy Score (Mero14): 28
- Composite Synergy Score (Mero83): 11
- Composite Synergy Score (Mero84): 0
- Composite Synergy Score (Miapaca2): 70
- Composite Synergy Score (SU8686): 50
- Composite Synergy Score (RT4): 40

Compound: Cn1ncc(-c2ccc3c(=O)[nH]nc(CN)c3c2)c1-c1c(F)c(Cl)cc(OC2CC2)c1C#N (atropisomer, axis not shown; (M)) [MRTX1719, (2M)-2-(4-(4-(aminomethyl)-1-oxo-1,2-dihydrophthalazin-6-yl)-1-methyl-1H-pyrazol-5-yl)-4-chloro-6-cyclopropoxy-3-fluorobenzonitrile]
- Average Tumor Volume (LU99 xenograft tumors; day 2): 221 mm^3
- Average Tumor Volume (LU99 xenograft tumors; day 6): 229 mm^3
- Average Tumor Volume (LU99 xenograft tumors; day 9): 232 mm^3
- Average Tumor Volume (LU99 xenograft tumors; day 14): 268 mm^3
- Average Tumor Volume (LU99 xenograft tumors; day 16): 296 mm^3
- Average Tumor Volume (LU99 xenograft tumors; day 20): 360 mm^3
- Average Tumor Volume (LU99 xenograft tumors; day −1): 137 mm^3

Compound: CC1(C)CCC(c2ccc(Cl)cc2)=C(CN2CCN(c3ccc(C(=O)NS(=O)(=O)c4ccc(N[C@H](CCN5CCOCC5)CSc5ccccc5)c(S(=O)(=O)C(F)(F)F)c4)cc3)CC2)C1 [ABT-263, navitoclax]
- Composite Synergy Score (A549): 23
- Composite Synergy Score (H1437): 13
- Composite Synergy Score (H1650): 32
- Composite Synergy Score (HCC4006): 23
- Composite Synergy Score (LU99): 41
- Composite Synergy Score (H2052): 11
- Composite Synergy Score (H2452): −20
- Composite Synergy Score (Mero14): 18
- Composite Synergy Score (Mero83): −26
- Composite Synergy Score (Mero84): −4
- Composite Synergy Score (Miapaca2): 16
- Composite Synergy Score (SU8686): 12
- Composite Synergy Score (RT4): 24
